In ChEMBL document CHEMBL2346657, “Synthesis of novel 2-amino-4-(5'-substituted 2'-phenyl-1H-indol-3'-yl)-6-aryl-4H-pyran-3-carbonitrile derivatives as antimicrobial and antioxidant agents” (2013):
Activity calls are given as the source filed them. No rule for the calls is given here.

Columns and labels:
Type in all cases: functional
[1] = tested on: Aspergillus oryzae; experiment: Antimicrobial activity against Aspergillus oryzae MTCC 3567 at 500 ug/ml after 72 hrs by cup plate method; details: MTCC 3567, 72 h, read-out: IZ
[2] = tested on: Aspergillus flavus; experiment: Antimicrobial activity against Aspergillus flavus MTCC 1973 at 750 ug/ml after 72 hrs by cup plate method; details: MTCC 1973, 72 h, read-out: IZ
[3] = tested on: Escherichia coli; experiment: Antimicrobial activity against Escherichia coli MTCC 723 at 500 ug/ml after 24 hrs by cup plate method; details: MTCC 723, 24 h, read-out: IZ
[4] = tested on: Aspergillus oryzae; experiment: Antimicrobial activity against Aspergillus oryzae MTCC 3567 at 750 ug/ml after 72 hrs by cup plate method; details: MTCC 3567, 72 h, read-out: IZ
[5] = tested on: Aspergillus terreus; experiment: Antimicrobial activity against Aspergillus terreus MTCC 1782 at 750 ug/ml after 72 hrs by cup plate method; details: MTCC 1782, 72 h, read-out: IZ
[6] = tested on: Pseudomonas aeruginosa; experiment: Antimicrobial activity against Pseudomonas aeruginosa MTCC 1688 at 750 ug/ml after 24 hrs by cup plate method; details: MTCC 1688, 24 h, read-out: IZ
[7] = tested on: Staphylococcus aureus; experiment: Antimicrobial activity against Staphylococcus aureus ATCC 29513 at 1000 ug/ml after 24 hrs by cup plate method; details: ATCC 29513, 24 h, read-out: IZ
[8] = tested on: Aspergillus flavus; experiment: Antimicrobial activity against Aspergillus flavus MTCC 1973 at 500 ug/ml after 72 hrs by cup plate method; details: MTCC 1973, 72 h, read-out: IZ
[9] = tested on: Escherichia coli; experiment: Antimicrobial activity against Escherichia coli MTCC 723 at 750 ug/ml after 24 hrs by cup plate method; details: MTCC 723, 24 h, read-out: IZ
[10] = tested on: Aspergillus flavus; experiment: Antimicrobial activity against Aspergillus flavus MTCC 1973 at 1000 ug/ml after 72 hrs by cup plate method; details: MTCC 1973, 72 h, read-out: IZ
[11] = Antioxidant activity assessed as metal chelating activity by measuring inhibition of ferrozine-Fe2+ complex formation at 25 to 100 ug/ml
[12] = tested on: Escherichia coli; experiment: Antimicrobial activity against Escherichia coli MTCC 723 at 1000 ug/ml after 24 hrs by cup plate method; details: MTCC 723, 24 h, read-out: IZ
[13] = tested on: Aspergillus oryzae; experiment: Antimicrobial activity against Aspergillus oryzae MTCC 3567 at 1000 ug/ml after 72 hrs by cup plate method; details: MTCC 3567, 72 h, read-out: IZ
[14] = tested on: Klebsiella pneumoniae; experiment: Antimicrobial activity against Klebsiella pneumoniae NCTC 13368 at 500 ug/ml after 24 hrs by cup plate method; details: NCTC 13368, 24 h, read-out: IZ
[15] = tested on: Pseudomonas aeruginosa; experiment: Antimicrobial activity against Pseudomonas aeruginosa MTCC 1688 at 500 ug/ml after 24 hrs by cup plate method; details: MTCC 1688, 24 h, read-out: IZ
[16] = tested on: Aspergillus terreus; experiment: Antimicrobial activity against Aspergillus terreus MTCC 1782 at 1000 ug/ml after 72 hrs by cup plate method; details: MTCC 1782, 72 h, read-out: IZ
[17] = tested on: Staphylococcus aureus; experiment: Antimicrobial activity against Staphylococcus aureus ATCC 29513 at 500 ug/ml after 24 hrs by cup plate method; details: ATCC 29513, 24 h, read-out: IZ
[18] = tested on: Aspergillus terreus; experiment: Antimicrobial activity against Aspergillus terreus MTCC 1782 at 500 ug/ml after 72 hrs by cup plate method; details: MTCC 1782, 72 h, read-out: IZ
[19] = tested on: Aspergillus niger; experiment: Antimicrobial activity against Aspergillus niger MTCC 281 at 1000 ug/ml after 72 hrs by cup plate method; details: MTCC 281, 72 h, read-out: IZ
[20] = tested on: Klebsiella pneumoniae; experiment: Antimicrobial activity against Klebsiella pneumoniae NCTC 13368 at 750 ug/ml after 24 hrs by cup plate method; details: NCTC 13368, 24 h, read-out: IZ
[21] = tested on: Aspergillus niger; experiment: Antimicrobial activity against Aspergillus niger MTCC 281 at 750 ug/ml after 72 hrs by cup plate method; details: MTCC 281, 72 h, read-out: IZ
[22] = tested on: Aspergillus niger; experiment: Antimicrobial activity against Aspergillus niger MTCC 281 at 500 ug/ml after 72 hrs by cup plate method; details: MTCC 281, 72 h, read-out: IZ
[23] = tested on: Pseudomonas aeruginosa; experiment: Antimicrobial activity against Pseudomonas aeruginosa MTCC 1688 at 1000 ug/ml after 24 hrs by cup plate method; details: MTCC 1688, 24 h, read-out: IZ
[24] = tested on: Klebsiella pneumoniae; experiment: Antimicrobial activity against Klebsiella pneumoniae NCTC 13368 at 1000 ug/ml after 24 hrs by cup plate method; details: NCTC 13368, 24 h, read-out: IZ
[25] = tested on: Staphylococcus aureus; experiment: Antimicrobial activity against Staphylococcus aureus ATCC 29513 at 750 ug/ml after 24 hrs by cup plate method; details: ATCC 29513, 24 h, read-out: IZ

SMILES	zone of inhibition at 500 µg/mL [1] [mm]	zone of inhibition at 750 µg/mL [2] [mm]	zone of inhibition at 500 µg/mL [3] [mm]	zone of inhibition at 750 µg/mL [4] [mm]	zone of inhibition at 750 µg/mL [5] [mm]	zone of inhibition at 750 µg/mL [6] [mm]	zone of inhibition at 1000 µg/mL [7] [mm]	zone of inhibition at 500 µg/mL [8] [mm]	zone of inhibition at 750 µg/mL [9] [mm]	zone of inhibition at 1000 µg/mL [10] [mm]	Activity [11]	zone of inhibition at 1000 µg/mL [12] [mm]	zone of inhibition at 1000 µg/mL [13] [mm]	zone of inhibition at 500 µg/mL [14] [mm]	zone of inhibition at 500 µg/mL [15] [mm]	zone of inhibition at 1000 µg/mL [16] [mm]	zone of inhibition at 500 µg/mL [17] [mm]	zone of inhibition at 500 µg/mL [18] [mm]	zone of inhibition at 1000 µg/mL [19] [mm]	zone of inhibition at 750 µg/mL [20] [mm]	other results
Nc1n[nH]c2c1C(c1c(-c3ccccc3)[nH]c3ccc(Cl)cc13)C=C(c1ccccc1)O2 (stereo not given)	12	12	7	12	3	12	8	12	7	9	Active	9	12	6	12	3	10	2	5	5	zone of inhibition at 750 µg/mL [21]: 5 mm; zone of inhibition at 500 µg/mL [22]: 6 mm; zone of inhibition at 1000 µg/mL [23]: 13 mm; zone of inhibition at 1000 µg/mL [24]: 5 mm; zone of inhibition at 750 µg/mL [25]: 8 mm
Cc1ccc(C2=CC(c3c(-c4ccccc4)[nH]c4ccc(C)cc34)c3c(nc[nH]c3=O)O2)cc1 (stereo not given)	3	9	2	3	9	8	2	10	2	9	Active	2	3	8	8	9	2	9	3	8	zone of inhibition at 750 µg/mL [21]: 3 mm; zone of inhibition at 500 µg/mL [22]: 3 mm; zone of inhibition at 1000 µg/mL [23]: 8 mm; zone of inhibition at 1000 µg/mL [24]: 8 mm; zone of inhibition at 750 µg/mL [25]: 2 mm
Cc1ccc2[nH]c(-c3ccccc3)c(C3C=C(c4ccc(Cl)cc4)Oc4nc[nH]c(=O)c43)c2c1 (stereo not given)	8	5	8	8	6	4	10	5	8	5	Active	8	8	5	4	6	10	6	11	5	zone of inhibition at 750 µg/mL [21]: 10 mm; zone of inhibition at 500 µg/mL [22]: 10 mm; zone of inhibition at 1000 µg/mL [23]: 4 mm; zone of inhibition at 1000 µg/mL [24]: 5 mm; zone of inhibition at 750 µg/mL [25]: 10 mm
